Key:
[1] = tested on: p-glycoprotein (abcb1a and abcb1b); test: Drug concentrations in cerebrum and plasma of abcb1ab (-/-) mice compared to wild-type controls after 11 day subcutaneous administration; conditions: for differences in plasma levels between abcb1ab (-/-) mutant and wildtype littermates: 11 day continuous sub-cutaneous administration; for fold higher concentration in the brain of abcb1ab (-/-) mutant compared to wildtype animals (cerebrum/plasma ratio): 11 day continuous sub-cutaneous administration via osmotic pumps, male mice; for intracerebral concentration regulated by p-glycoprotein: administration for 11 days, mice lacking abcb1a and abcb1b
Description: Venlafaxine and o-desmethylvenlafaxine (d-venlafaxine) was obtained from Wyeth-Pharma GmbH (Münster, Germany). […] Protriptyline was purchased from RBI (Massachusetts, USA). All other chemicals were obtained in the purest grade available from Merck (Darmstadt, Germany).
Male abcb1ab(−/−) mice and FVB/N wildtype mice were housed individually and maintained on a 12:12 h light/dark cycle (lights on at 07:00), with food and water ad libitum. Abcb1ab double knockout mice, originally created by A. Schinkel by sequential gene targeting in 129/Ola E14 embryonic stem cells^28 and backcrossed seven times (N7) to FVB/N from the C57BL/6×129 chimera, and FVB/N wildtype mice were received from Taconic (Germantown, USA; FVB/Tac-[KO]Pgy2 N7). A homozygous colony is maintained at the Max-Planck Institute of Psychiatry on the N7 FVB/N background through intercrossing of homozygous mice.
Experimental and extraction procedures were performed as described before^12,26. […] After 11 days, the mice were anesthetized and sacrificed. The dissected organs were homogenized and a liquid-liquid extraction procedure has been carried out with n-hexan/isoamylalcohol (Table 3) in the first step and phosphoric acid in the second.
HPLC measurements were performed as described before^12,26. A Beckman gradient pump, autoinjector, UV detector and a Merck fluorescence detector, were used for the high-performance liquid chromatography analysis. Separations were made on a reversed phase Luna 5μ C18(2) 250×4.6 mm column (Phenomenex, Torrance, USA), 60° C., mobile phase flow 1 ml/min. A mobile phase gradient with acetonitrile was used for the chromatography analysis (Table 3). The substances were determined by UV absorption and fluorescence at the described wavelength (Table 3).
Statistical analysis was carried out the statistic software SPSS 10.0 for windows (Chicago, Ill.). Significance was tested by one-factorial multivariate analyses of variance (MANOVAs). […] As a nominal level of significance α=0.05 was accepted and corrected (reduced according to the Bonferroni procedure) for all a posteriori tests (univariate F-tests) in order to keep the type I error less than or equal to 0.05.

[2] = Plasma concentration of antidepressant drugs in depressed patients according to rs2235015 genotype; type: in vivo, human; conditions: weeks 4-6 of treatment; rs2235015 GG homozygotes; SEM=51.6
Description: All patients were treated with antidepressant drugs within a few days of admission. The type antidepressant medication was not influence by the participation in the study, but chosen freely by the responsible psychiatrist. For all patients plasma concentration of antidepressant medication was monitored to assure clinically efficient drug levels.
Plasma citalopram, mirtazapine, and paroxetine were extracted with a liquid-liquid extraction procedure and than measured after HPLC with UV absorption and fluorescence.
We used a reversed phase Luna 5μ C18(2) 250×4.6 mm column (Phenomenex, Torrance, USA), 60° C., mobile phase flow 1 ml/min. […] The extraction recovery was >90%, and the intra and inter day variation coefficient was <10%.
To detect any genotype dependent differences in antidepressant dose or plasma level, we used a one-way ANOVA with the genotype of rs2235015 as factor.

[3] = tested on: p-glycoprotein (ABCB1 protein); conditions: cited from earlier work; for uptake / penetration into the brain of mice dependent on ABCB1 protein: mice with abcb1ab knockout mutation, cited literature; for substrate of p-glycoprotein: from cited literature

Row | SMILES | uptake / penetration into the brain of mice dependent on ABCB1 protein [3] | substrate of p-glycoprotein [3] | also measured
1 | CN1CCN2c3ncccc3Cc3ccccc3C2C1 (stereo not shown) [mirtazapine] |  |  | differences in cerebrum/plasma ratios between abcb1ab (-/-) mutant and wildtype ([1]; mouse, in vivo): no significant differences
2 | COc1ccc(C(CN(C)C)C2(O)CCCCC2)cc1 (stereo not shown) [venlafaxine] | enhancement of penetration |  | mean plasma level of administered antidepressant [2]: 356.5 ng/mL; differences in plasma levels between abcb1ab (-/-) mutant and wildtype littermates [1]: no differences; fold higher concentration in the brain of abcb1ab (-/-) mutant compared to wildtype animals (cerebrum/plasma ratio) [1]: 1.7 fold; intracerebral concentration regulated by p-glycoprotein [1]: regulated by p-glycoprotein
3 | CNCCC=C1c2ccccc2CCc2ccccc21 [nortriptyline] |  | substrate of p-glycoprotein | 
4 | CN(C)CCC=C1c2ccccc2COc2ccccc21 [doxepin] | enhancement of penetration |  | 
5 | CN(C)CCCC1(c2ccc(F)cc2)OCc2cc(C#N)ccc21 (stereo not shown) [citalopram] | involved in the uptake |  | 
6 | Fc1ccc([C@@H]2CCNC[C@H]2COc2ccc3c(c2)OCO3)cc1 [paroxetine] | enhancement of penetration | identified as a substrate of p-glycoprotein | 
7 | CNCCC(Oc1ccc(C(F)(F)F)cc1)c1ccccc1 (stereo not shown) [fluoxetine] |  | not substrate of p-glycoprotein | 
8 | CC(CN(C)C)CN1c2ccccc2CCc2ccccc21 (stereo not shown) [trimipramine] | involved in the uptake |  | 
9 | CN(C)CC(c1ccc(O)cc1)C1(O)CCCCC1 (stereo not drawn) [d-venlafaxine, o-desmethylvenlafaxine] |  |  | differences in plasma levels between abcb1ab (-/-) mutant and wildtype littermates [1]: no differences; fold higher concentration in the brain of abcb1ab (-/-) mutant compared to wildtype animals (cerebrum/plasma ratio) [1]: 4.1 fold; intracerebral concentration regulated by p-glycoprotein [1]: regulated by p-glycoprotein

From US8030033B2, “Polymorphisms in ABCB1 associated with a lack of clinical response to medicaments” (priority 2004, dated 2011)
